Source: ChEMBL document CHEMBL1201862, “PubChem BioAssay data set” (2004)
Activity calls are given as the source filed them.

Columns and labels:
Beta-galactosidase = Beta-galactosidase (Escherichia coli, UniProt Q8VNN2); assay: Dose response counterscreen for EBI2 assay utilizing the enzyme, b-galactosidase.; type: functional
Galanin receptor type 3 = Galanin receptor type 3 (Homo sapiens, UniProt O60755); assay: Fluorescence-based cell-based primary high throughput dose response assay to identify antagonists of the Galanin Receptor 3 (GalR3).; type: functional
Sequence of Galanin receptor type 3 (O60755 whole entry): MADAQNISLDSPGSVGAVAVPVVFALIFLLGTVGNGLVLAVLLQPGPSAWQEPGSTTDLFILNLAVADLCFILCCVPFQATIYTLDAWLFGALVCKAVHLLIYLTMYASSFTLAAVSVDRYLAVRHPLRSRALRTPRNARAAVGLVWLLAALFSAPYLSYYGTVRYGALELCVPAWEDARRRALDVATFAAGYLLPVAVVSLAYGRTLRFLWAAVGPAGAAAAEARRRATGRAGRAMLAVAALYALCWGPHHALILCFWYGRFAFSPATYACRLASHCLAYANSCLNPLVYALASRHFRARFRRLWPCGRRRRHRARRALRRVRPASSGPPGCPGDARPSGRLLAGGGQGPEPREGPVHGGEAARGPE

cells [1] = type: functional, cell-based; conditions: HEK-CNG
[2] = molecular target: ADP-ribosylation factor GTPase-activating protein 1 (Rattus norvegicus, UniProt Q62848); assay: Fluorescence polarization-based biochemical high throughput dose response screening assay to identify inhibitors of ADP-ribosylation factor GTPase activating protein 1 (ARFGAP1).; type: functional
Sequence of ADP-ribosylation factor GTPase-activating protein 1 (Q62848 whole entry): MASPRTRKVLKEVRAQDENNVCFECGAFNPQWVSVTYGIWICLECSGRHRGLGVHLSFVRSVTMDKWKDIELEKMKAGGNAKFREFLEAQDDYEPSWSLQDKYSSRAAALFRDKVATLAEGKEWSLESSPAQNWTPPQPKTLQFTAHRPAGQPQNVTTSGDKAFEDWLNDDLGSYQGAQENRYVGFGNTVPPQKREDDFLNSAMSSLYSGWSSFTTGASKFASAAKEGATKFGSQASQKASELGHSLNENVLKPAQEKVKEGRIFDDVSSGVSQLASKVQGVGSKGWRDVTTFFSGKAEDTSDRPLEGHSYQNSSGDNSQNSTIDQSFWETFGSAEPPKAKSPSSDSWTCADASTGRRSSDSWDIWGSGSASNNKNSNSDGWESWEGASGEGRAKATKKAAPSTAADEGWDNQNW

[3] = human group III sPLA2 inhibitors, dose response, biochemical, QFRET, IC50 (AID 743457);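 also: green fluorescence rise as the enzyme cleaves BODIPY PC-A2 in liposomes; potency for inhibition of the enzyme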
[4] = molecular target: Induced myeloid leukemia cell differentiation protein Mcl-1 (Homo sapiens, UniProt Q07820); type: functional
Sequence of Induced myeloid leukemia cell differentiation protein Mcl-1 (Q07820 whole entry): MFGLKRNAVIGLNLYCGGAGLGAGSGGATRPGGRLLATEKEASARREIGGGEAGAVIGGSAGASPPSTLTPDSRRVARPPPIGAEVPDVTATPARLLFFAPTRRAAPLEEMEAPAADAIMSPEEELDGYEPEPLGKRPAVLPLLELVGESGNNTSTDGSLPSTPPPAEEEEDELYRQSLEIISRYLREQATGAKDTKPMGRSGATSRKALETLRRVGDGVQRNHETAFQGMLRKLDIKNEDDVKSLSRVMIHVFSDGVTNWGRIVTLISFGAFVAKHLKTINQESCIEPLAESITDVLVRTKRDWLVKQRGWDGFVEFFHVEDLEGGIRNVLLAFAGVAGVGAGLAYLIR

[5] = molecular target: T1, Small ubiquitin-related modifier 1 (Homo sapiens, UniProt P63165); assay: inhibitors of SUMO1 peptide binding, dose response, biochemical, fluorescence polarization, uHTS hits (AID 624382); type: functional; conditions: read-out: IC50_Mean
T1 sequence (P63165 whole entry): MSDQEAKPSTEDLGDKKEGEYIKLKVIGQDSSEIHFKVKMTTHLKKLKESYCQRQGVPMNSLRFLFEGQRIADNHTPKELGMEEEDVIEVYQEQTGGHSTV

[6] = molecular target: T1, Small ubiquitin-related modifier 1; assay: inhibitors of SUMO1 partner interactions, dose response, biochemical, FRET (AID 624383); type: functional; conditions: read-out: IC50_Mean
[7] = MC4R antagonists, dose response, counter-screen for LGR2 antagonist project, cell-based, plate reader, cherry pick (AID 743444); type: functional;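 also: transfected HEK 293 cells stimulated with alpha-MSH peptide; potency of inhibitors of the alpha-MSH evoked signal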
[8] = HEK293 cell cytotoxicity, dose response, cytotoxicity control, plate reader, cherry-picked samples (AID 743446); type: functional, cell-based
[9] = A549 cell cytotoxicity, dose response, cytotoxicity control, plate reader, cherry-pick, antagonist series (AID 743412); type: functional, cell-based
[10] = LGR2 antagonists, dose response, cell-based, HEK293, CRE-luciferase reporter, cherry pick, set 2 (AID 743343); type: functional;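 also: transfected cells were stimulated with diluted bursicon conditioned medium after compound addition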
[11] = HepG2 cell cytotoxicity, dose response, cytotoxicity control, plate reader, cherry-pick, antagonist series (AID 743416); type: functional, cell-based
INS1 = assay: beta cell apoptosis inhibitors, cytokine rescue, dose response, luminescence, retest (AID 449756); type: functional, cell-based; conditions: Rattus norvegicus;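 also: cell death triggered by IL-1 beta plus TNF-alpha plus IFN-gamma mixture; protective hits raise ATP signal compared with cytokine alone wells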
[12] = molecular target: T2, COUP transcription factor 2 (Homo sapiens, UniProt P24468); assay: Luminescence-based cell-based high throughput dose response assay to identify inhibitors of COUP-TFII (NR2F2).; type: functional;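 also: HEK293 cells transiently cotransfected with COUP-TFII expression vector and reporter; luciferase reporter luminescence driven by COUP-TFII from the pX2-168 reporter plasmid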
T2 sequence (P24468 whole entry): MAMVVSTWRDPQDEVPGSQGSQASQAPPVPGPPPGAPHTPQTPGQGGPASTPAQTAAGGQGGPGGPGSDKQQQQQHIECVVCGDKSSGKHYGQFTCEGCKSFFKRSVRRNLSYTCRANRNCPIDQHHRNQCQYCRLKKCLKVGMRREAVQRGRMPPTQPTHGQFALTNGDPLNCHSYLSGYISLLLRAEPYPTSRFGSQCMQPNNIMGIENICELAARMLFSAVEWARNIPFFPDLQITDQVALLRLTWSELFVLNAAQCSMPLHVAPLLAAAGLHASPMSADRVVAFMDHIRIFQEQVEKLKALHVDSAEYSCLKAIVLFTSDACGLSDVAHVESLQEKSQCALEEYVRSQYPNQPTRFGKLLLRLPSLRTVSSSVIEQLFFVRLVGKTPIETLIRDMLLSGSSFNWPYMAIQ

[13] = Shn3 3'UTR reporter inhibitors, dose response, cell-based, Clone20 osteoblasts, firefly luciferase, cherry-picked (AID 624132); type: functional;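 also: firefly luciferase luminescence from reporter carrying the Shn3 3'UTR in osteoblasts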
[14] = HepG2 cell cytotoxicity, dose response, cytotoxicity control for Shn3 inhibitor project, CellTiter-Glo, cherry-picked (AID 624134); type: functional, cell-based
[15] = control 3'UTR Renilla luciferase suppression, dose response, counter-screen for Shn3 inhibitor project, cell-based, Clone20-Shn3RL, cherry-picked (AID 624133); type: functional
Mu-type opioid receptor = Mu-type opioid receptor (Homo sapiens, UniProt P35372); type: functional, cell-based;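 also: U2OS cells with beta-arrestin recruitment to OPRM1 by beta-gal complementation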
Sequence of Mu-type opioid receptor (P35372 whole entry): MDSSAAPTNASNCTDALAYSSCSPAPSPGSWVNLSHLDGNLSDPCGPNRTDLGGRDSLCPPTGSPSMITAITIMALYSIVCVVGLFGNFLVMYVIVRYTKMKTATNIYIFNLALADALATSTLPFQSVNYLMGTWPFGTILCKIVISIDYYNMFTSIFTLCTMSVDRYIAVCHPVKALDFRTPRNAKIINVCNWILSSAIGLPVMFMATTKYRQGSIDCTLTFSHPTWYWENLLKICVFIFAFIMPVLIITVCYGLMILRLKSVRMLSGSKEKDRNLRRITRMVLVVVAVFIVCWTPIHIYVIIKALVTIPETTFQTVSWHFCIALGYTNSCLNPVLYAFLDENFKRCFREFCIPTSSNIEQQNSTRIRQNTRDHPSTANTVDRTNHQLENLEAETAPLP

[16] = molecular target: 5-hydroxytryptamine receptor 2A (Mus musculus, UniProt P35363); type: functional, cell-based;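 also: CHO-K1 cells with tagged receptor and beta-arrestin; agonist potency measured as compound-induced activation of the receptor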
Sequence of 5-hydroxytryptamine receptor 2A (P35363 whole entry): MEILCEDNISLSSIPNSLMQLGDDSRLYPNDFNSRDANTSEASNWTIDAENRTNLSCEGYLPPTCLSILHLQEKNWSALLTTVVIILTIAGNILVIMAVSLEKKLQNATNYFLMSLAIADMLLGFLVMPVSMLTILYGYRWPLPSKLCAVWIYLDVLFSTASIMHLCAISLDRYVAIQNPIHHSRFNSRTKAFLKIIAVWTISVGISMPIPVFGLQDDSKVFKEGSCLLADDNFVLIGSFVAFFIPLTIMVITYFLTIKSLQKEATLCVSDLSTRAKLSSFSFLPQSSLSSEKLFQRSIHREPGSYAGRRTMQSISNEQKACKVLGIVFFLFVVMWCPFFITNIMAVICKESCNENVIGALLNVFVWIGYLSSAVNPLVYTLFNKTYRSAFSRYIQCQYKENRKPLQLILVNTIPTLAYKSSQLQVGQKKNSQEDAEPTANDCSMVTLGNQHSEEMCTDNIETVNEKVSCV

[17] = molecular target: T3, Nuclear receptor subfamily 0 group B member 1 (Homo sapiens, UniProt P51843); type: functional, cell-based;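 also: HEK293T cells transfected with SF-1 and DAX-1 plus StAR promoter luciferase reporter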
T3 sequence (P51843 whole entry): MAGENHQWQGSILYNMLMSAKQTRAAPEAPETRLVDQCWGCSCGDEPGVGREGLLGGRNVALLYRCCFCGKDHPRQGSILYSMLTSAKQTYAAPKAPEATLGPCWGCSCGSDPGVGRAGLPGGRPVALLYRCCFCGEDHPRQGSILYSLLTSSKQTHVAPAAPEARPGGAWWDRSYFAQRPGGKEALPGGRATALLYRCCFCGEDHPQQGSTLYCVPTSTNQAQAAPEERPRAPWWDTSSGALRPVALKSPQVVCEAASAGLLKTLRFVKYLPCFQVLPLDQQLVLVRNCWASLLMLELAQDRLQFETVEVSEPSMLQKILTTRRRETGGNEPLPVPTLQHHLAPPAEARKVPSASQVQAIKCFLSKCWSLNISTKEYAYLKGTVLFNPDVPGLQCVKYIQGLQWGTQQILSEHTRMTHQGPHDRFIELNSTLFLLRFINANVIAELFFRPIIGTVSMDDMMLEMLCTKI

cells [18] = type: functional, cell-based
[19] = molecular target: T4, Sentrin-specific protease 8 (Homo sapiens, UniProt Q96LD8); type: functional
T4 sequence (Q96LD8 whole entry): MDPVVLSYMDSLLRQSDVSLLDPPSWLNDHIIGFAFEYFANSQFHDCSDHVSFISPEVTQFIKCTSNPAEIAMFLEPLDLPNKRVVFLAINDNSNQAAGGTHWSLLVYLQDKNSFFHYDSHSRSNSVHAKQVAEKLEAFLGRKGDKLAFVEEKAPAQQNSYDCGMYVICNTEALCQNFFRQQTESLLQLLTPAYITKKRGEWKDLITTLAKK

[20] = molecular target: T4, Sentrin-specific protease 8; type: functional; remark: listed apart in the source
[21] = molecular target: T5, Low molecular weight phosphotyrosine protein phosphatase (Homo sapiens, UniProt P24666); type: functional; conditions: read-out: IC50_Mean
T5 sequence (P24666 whole entry): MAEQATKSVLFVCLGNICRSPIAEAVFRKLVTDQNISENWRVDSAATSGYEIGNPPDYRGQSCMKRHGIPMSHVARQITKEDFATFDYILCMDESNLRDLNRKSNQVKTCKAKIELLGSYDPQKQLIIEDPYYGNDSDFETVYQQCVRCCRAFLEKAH

Beta-lactamase [22] = molecular target: Beta-lactamase (Pseudomonas aeruginosa, UniProt Q79MP6);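 also: biochemical dose-response test of metallo-beta-lactamase enzyme inhibition, read out by epi-absorbance; purified recombinant IMP-1 metallo-beta-lactamase with nitrocefin as substrate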
Sequence of Beta-lactamase (Pseudomonas aeruginosa, UniProt Q79MP6) (Q79MP6 whole entry): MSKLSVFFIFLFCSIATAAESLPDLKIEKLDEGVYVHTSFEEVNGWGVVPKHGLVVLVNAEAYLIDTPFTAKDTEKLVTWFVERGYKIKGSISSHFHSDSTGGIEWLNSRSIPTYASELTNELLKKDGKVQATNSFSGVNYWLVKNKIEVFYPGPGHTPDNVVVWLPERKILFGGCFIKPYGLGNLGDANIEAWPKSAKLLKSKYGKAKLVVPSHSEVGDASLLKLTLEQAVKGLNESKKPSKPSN

[23] = molecular target: 72 kDa type IV collagenase (Homo sapiens, UniProt P08253); assay: Dose Response validation of uHTS RPN11 inhibitor hits using a MMP-2 Fluorescence assay.; type: functional
Sequence of 72 kDa type IV collagenase (P08253 whole entry): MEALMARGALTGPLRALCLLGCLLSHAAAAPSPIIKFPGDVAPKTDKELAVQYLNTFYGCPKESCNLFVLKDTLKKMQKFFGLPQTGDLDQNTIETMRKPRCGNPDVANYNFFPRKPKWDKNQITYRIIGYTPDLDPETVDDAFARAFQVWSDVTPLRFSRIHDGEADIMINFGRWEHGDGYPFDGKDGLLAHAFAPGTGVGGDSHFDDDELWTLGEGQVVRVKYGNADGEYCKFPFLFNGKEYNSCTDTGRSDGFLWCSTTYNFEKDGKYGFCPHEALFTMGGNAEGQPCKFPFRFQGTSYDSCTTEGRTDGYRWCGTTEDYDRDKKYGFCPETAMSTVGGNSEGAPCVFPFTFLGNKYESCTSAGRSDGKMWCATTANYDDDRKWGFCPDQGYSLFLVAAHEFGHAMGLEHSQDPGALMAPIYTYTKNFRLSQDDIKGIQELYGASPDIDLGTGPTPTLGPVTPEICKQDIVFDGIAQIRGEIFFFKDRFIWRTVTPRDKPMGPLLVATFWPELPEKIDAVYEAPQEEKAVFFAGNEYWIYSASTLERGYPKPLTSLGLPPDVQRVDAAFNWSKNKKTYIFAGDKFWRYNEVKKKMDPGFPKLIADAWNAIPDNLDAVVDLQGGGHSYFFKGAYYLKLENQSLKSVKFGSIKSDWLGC

[24] = molecular target: 26S proteasome non-ATPase regulatory subunit 14 (Homo sapiens, UniProt O00487); assay: inhibition of proteasome subunit RPN11 – biochemical, fluorescence polarization, uHTS hits, confirmation (AID 602368); type: functional
Sequence of 26S proteasome non-ATPase regulatory subunit 14 (O00487 whole entry): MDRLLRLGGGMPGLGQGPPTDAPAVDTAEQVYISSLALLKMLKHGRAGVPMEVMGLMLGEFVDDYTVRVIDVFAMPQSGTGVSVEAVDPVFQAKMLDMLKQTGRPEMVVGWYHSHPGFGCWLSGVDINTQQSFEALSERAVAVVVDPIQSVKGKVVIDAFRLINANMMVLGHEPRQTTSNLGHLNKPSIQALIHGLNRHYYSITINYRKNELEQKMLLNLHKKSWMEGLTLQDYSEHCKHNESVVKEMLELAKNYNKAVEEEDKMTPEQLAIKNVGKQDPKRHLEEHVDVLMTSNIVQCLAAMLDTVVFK

Beta Lactamase = Beta Lactamase (Pseudomonas aeruginosa, UniProt Q932Y6);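 also: confirmatory high-throughput screen measuring VIM-2 metallo-beta-lactamase inhibition by epi-absorbance in dose response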
Sequence of Beta Lactamase (Q932Y6 whole entry): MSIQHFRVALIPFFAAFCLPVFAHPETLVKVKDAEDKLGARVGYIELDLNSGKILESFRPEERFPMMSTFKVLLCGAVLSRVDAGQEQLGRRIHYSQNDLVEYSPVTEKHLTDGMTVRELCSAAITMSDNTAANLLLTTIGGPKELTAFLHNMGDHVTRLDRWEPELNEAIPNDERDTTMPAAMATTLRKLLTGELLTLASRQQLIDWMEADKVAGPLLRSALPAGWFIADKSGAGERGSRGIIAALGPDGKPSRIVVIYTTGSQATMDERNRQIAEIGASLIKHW

[25] = molecular target: T5, Low molecular weight phosphotyrosine protein phosphatase; type: functional; conditions: read-out: IC50_Mean; remark: listed apart in the source
Prothrombin = Prothrombin (Bos taurus, UniProt P00735); assay: thrombin inhibition, dose response, biochemical, fluorescence polarization, uHTS hits (AID 602369); type: functional
Beta-lactamase [26] = molecular target: Beta-lactamase (Salmonella choleraesuis (strain SC-B67), UniProt Q5J463)
Sequence of Beta-lactamase (Salmonella choleraesuis (strain SC-B67), UniProt Q5J463) (Q5J463 whole entry): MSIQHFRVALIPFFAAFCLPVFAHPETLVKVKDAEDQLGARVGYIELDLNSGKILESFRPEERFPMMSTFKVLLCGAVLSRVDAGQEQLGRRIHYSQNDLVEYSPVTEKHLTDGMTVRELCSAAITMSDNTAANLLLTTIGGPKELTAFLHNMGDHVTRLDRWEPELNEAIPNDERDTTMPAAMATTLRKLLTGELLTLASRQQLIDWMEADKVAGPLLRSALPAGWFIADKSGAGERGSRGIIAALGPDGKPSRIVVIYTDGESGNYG

cells [27] = type: functional, cell-based; remark: listed apart in the source
[28] = molecular target: T6, Trace amine-associated receptor 1 (Homo sapiens, UniProt Q96RJ0); assay: Fluorescence-based cell-based high throughput dose response assay to identify agonists of the human trace amine associated receptor 1 (TAAR1).; type: functional
T6 sequence (Q96RJ0 whole entry): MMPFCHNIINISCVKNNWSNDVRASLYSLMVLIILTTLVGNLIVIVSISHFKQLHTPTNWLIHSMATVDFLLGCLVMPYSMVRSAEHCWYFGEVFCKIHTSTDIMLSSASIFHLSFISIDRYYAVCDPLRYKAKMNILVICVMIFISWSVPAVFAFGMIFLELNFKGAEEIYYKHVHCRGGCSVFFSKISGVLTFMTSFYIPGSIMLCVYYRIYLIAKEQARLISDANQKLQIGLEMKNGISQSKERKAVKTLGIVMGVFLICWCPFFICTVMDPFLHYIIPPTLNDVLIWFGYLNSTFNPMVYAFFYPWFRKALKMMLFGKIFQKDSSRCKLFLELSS

cells [29] = type: functional, cell-based; remark: listed apart in the source
[30] = molecular target: T6, Trace amine-associated receptor 1; assay: Counterscreen for agonists of the human trace amine associated receptor 1 (hTAAR1): Fluorescence-based cell-based high throughput dose response assay to identify hTAAR1 agonist that also desensitize TAAR1 receptor response.; type: functional
[31] = molecular target: T7, Rac GTPase-activating protein 1 (Homo sapiens, UniProt Q9H0H5); assay: MgcRacGAP GTPase-activating activity inhibitors, confirmation, biochemical, ADP Hunter fluorescence, primary and confirmatory (AID 624330); type: functional
T7 sequence (Q9H0H5 whole entry): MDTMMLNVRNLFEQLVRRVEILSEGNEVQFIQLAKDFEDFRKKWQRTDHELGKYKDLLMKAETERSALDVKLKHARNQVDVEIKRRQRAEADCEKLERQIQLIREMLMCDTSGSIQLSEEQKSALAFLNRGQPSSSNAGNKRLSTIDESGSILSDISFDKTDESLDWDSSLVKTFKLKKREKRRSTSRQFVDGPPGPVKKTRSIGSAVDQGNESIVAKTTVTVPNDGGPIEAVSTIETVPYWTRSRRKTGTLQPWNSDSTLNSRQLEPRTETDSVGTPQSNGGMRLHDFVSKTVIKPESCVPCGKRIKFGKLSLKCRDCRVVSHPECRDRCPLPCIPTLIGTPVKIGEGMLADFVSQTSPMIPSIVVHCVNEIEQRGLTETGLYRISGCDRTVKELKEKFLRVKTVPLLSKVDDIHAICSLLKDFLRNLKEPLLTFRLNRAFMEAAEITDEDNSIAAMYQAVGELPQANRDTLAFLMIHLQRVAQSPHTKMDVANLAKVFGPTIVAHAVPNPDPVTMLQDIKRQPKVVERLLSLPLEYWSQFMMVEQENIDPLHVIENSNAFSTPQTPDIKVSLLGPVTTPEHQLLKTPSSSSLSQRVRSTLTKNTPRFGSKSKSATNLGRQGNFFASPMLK

[32] = molecular target: T8, Voltage-gated N-type calcium channel alpha-1B subunit/Amyloid beta A4 precursor protein-binding family A member 1 (Homo sapiens, UniProt Q00975+Q02410); type: protein assay
[33] = molecular target: T8, Voltage-gated N-type calcium channel alpha-1B subunit/Amyloid beta A4 precursor protein-binding family A member 1; type: protein assay; remark: listed apart in the source

Sequence of Beta-galactosidase (Q8VNN2 whole entry): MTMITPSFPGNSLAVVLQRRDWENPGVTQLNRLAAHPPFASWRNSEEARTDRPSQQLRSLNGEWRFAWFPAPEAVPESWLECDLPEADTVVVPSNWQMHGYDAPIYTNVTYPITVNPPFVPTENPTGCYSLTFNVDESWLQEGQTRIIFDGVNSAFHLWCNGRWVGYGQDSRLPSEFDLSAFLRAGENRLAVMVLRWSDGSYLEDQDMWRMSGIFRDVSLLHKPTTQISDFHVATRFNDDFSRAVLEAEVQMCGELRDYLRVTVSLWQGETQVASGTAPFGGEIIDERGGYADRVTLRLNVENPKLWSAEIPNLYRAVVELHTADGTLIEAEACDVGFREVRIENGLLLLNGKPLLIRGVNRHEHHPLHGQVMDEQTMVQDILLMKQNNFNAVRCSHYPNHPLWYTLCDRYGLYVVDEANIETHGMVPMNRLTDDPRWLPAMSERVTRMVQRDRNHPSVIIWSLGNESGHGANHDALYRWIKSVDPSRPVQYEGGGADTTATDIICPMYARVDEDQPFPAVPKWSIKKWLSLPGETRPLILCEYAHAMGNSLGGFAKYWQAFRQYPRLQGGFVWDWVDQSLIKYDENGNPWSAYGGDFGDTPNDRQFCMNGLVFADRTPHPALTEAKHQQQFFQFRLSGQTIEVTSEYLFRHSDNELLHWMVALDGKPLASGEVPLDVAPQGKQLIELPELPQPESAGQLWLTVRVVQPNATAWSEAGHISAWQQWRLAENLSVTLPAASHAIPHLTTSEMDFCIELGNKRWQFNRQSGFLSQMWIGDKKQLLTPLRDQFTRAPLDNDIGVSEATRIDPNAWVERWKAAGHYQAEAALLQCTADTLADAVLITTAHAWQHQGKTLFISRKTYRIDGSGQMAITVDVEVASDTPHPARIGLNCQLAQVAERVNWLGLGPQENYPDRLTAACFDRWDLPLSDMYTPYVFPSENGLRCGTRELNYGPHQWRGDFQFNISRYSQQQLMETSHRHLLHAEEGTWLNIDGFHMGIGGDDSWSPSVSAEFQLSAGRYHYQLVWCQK

Cc1cc(C)c(S(=O)(=O)N2CCN(C(=O)C3COc4ccccc4O3)CC2)c(C)c1 (centres undefined)
IC50 (Beta-galactosidase): > 80 µM (inactive)

Cc1ccc(-c2sc(C(=O)NN)c(C)c2C#N)cc1
IC50 (Galanin receptor type 3): > 29.9 µM (inactive) | EC50 (cells [1]): > 29.9 µM (inactive)

COc1cc(/C=C2\SC(N)=NC2=O)ccc1OCC(=O)Nc1ccc(C)cc1
IC50 [2]: 28.3 µM (inactive)

Cc1ccccc1OCCCN1C(=O)C(=O)c2cccc(C)c21
IC50 [3]: > 122 µM (inactive)

O=C(NC1CC1)c1cc(-c2ccco2)nc2ccccc12
IC50 [4]: 1.71 µM (active) | IC50 [5]: > 66.6 µM (inactive) | IC50 [6]: 8.06 µM (active)

Cc1c(Cl)c(C(=O)NN=C(S)NCc2ccco2)nn1C
IC50 [3]: > 122 µM (inactive)

Cc1ccc(-c2cnc3c(Cl)c(C)nn3c2)cc1
AC50 [7]: 8.19 µM (active) | AC50 [8]: 31.5 µM (active) | AC50 [9]: 5.87 µM (active) | AC50 [10]: 7.53 µM (active) | AC50 [11]: 40.8 µM (active)

O=C(Cn1c2ccc(F)cc2c2nc3n(c(=O)c21)CCS3)Nc1ccccc1C(F)(F)F
IC50 [2]: 50.1 µM (inactive)

O=C(CSc1nnc(Cn2nnc3ccccc32)o1)N(Cc1ccc(Cl)cc1)c1ccccc1
IC50 (Galanin receptor type 3): 1.11 µM (active) | AC50 (INS1): 4.83 µM (active) | EC50 (cells [1]): > 29.9 µM (inactive) | IC50 [12]: 4.19 µM (active) | AC50 [13]: 2.29 µM (active) | AC50 [14]: 6.74 µM (active) | AC50 [15]: 11.9 µM (active)

C/C(=C\c1ccccc1)CN1CCN(c2ccccc2)CC1
EC50 (Mu-type opioid receptor): 92.5 µM (inactive) | EC50 [16]: 76.1 µM (inactive)

CCC1CCCCN1C(=O)CCS(=O)(=O)c1ccccc1 (centres undefined)
IC50 [17]: > 67.6 µM (inactive) | IC50 (cells [18]): > 67.6 µM (inactive)

Cc1cccc(N2C(=O)/C(=C\c3ccc(C(=O)O)cc3)c3ccccc3C2=O)c1
IC50 [19]: 6.45 µM (active) | IC50 [20]: > 100 µM (inactive)

O=C(CSc1ccc(Br)cc1)N1CCN(C(=O)c2ccco2)CC1
IC50 (Beta-galactosidase): > 80 µM (inactive)

COc1ccc(/C(C)=N/NC(=O)c2nnn(-c3nonc3N)c2-c2ccccc2)cc1
IC50 [21]: 35.2 µM (inactive) | IC50 (Beta-lactamase [22]): > 59.6 µM (inactive) | IC50 [23]: 8.15 µM (active) | IC50 [24]: 30.2 µM (active) | IC50 (Beta Lactamase): > 59.6 µM (inactive) | IC50 [25]: > 80 µM (inactive) | IC50 (Prothrombin): > 100 µM (inactive) | IC50 (Beta-lactamase [26]): > 59.6 µM (inactive)

O=C(NCCc1ccccc1Cl)[C@@H]1CCCN1C(=O)[C@@H](NS(=O)(=O)c1ccc(F)cc1F)c1ccccc1
EC50 (cells [27]): > 29.9 µM (inactive) | EC50 [28]: 12.4 µM (inactive) | IC50 (cells [29]): > 29.9 µM (inactive) | IC50 [30]: 5.69 µM (active)

CC(C)n1cc(/C=N/Nc2ccc(Cl)c(C(=O)O)c2)c2ccccc21
IC50 [31]: 102 µM (active) | IC50 (Beta-lactamase [22]): > 59.6 µM (inactive) | IC50 [5]: > 66.6 µM (inactive) | IC50 (Beta Lactamase): > 59.6 µM (inactive) | IC50 [32]: 41.8 µM (active) | IC50 [6]: 3.26 µM (active) | IC50 [33]: > 50 µM (inactive) | IC50 (Beta-lactamase [26]): > 59.6 µM (inactive)
